Data on three compounds can be found in patent publication US20030157541A1, “Regulation of human CycLT2-like GPCR protein” (Bayer Aktiengesellschaft, priority 2000, published 2003).

The target in this test is T1, CysLT2 (Homo sapiens, UniProt Q9NS75).
T1 construct: expressed in transfected cells; membranes used
T1 sequence (Q9NS75 1-346): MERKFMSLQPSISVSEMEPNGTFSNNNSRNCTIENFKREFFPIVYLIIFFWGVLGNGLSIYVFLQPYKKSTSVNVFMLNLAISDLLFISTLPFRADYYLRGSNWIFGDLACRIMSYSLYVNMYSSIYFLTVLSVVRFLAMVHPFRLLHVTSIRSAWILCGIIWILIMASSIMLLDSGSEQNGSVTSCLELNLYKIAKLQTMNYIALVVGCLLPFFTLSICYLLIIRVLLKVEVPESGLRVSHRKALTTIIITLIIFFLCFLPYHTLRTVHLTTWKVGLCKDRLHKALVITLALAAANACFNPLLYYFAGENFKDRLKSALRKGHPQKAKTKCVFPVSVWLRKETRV
The test is described as follows: Competition for [^3H]LTD4-specific binding to CysLT2 membranes. As to the method: Membrane preparation for CysLT2 receptor binding assay. Peak stable cells transformed with CysLT2 expression vector were maintained in D-MEM supplemented with 10% FCS and 2 μg/ml of puromycin. Cells were collected and kept at −80° C. until membrane preparation. Frozen cells were suspended in cold membrane preparation buffer (50 mM Tris-HCl pH 7.5, protease inhibitor mixture(#1873580, Roche)), and disrupted with Polytron (Cat.#PT10-35, Kinematica AG, Switzerland). Disrupted cells were centrifuged at 500×g for 5 minutes at 4° C. to remove the nuclear fraction, and supernatants were applied to high speed centrifugation (45,000×g, 15 minutes, 4° C.) to precipitate membrane fraction. After the supernatant was removed, membrane preparation buffer were added to the pellet and homogenized gently on ice. Glycerol (final conc.;10%) and bovine serum albumin (final conc.:0.5%, Cat#A-3059, Sigma) were added to the membrane suspension as stabilizer. Membrane suspension was then divided into small vials and frozen in liquid nitrogen. After 1 hour freezing, vials were kept at −80° C. until use.
At the end of the binding reaction, 100 μl of the reaction mixture was transferred to a 96-well filtration plate (Cat.#MAFB-N0B, Millipore), and washed 3 times with 200 μl/well of cold binding buffer. […] The specific binding (total binding—non-specific binding) was measured by liquid scintillation counter (TopCount™, Packard) and expressed as the relative binding (%) in the figure.
Inhibition assay using several antagonists.

Regarding `O=C(O)CCCNC(=O)c1cc(C(=O)O)ccc1OCCCc1ccc(OCCCCOc2ccccc2)cc1` [Bay y8934], the IC50 (usually the concentration that inhibits the measured activity by half) is 1000 nM.

As to `CCOC(=O)c1cn(-c2ccc(C3=CC(F)(F)C3(F)F)cc2)c2cc(F)c(F)cc2c1=O` [Bay y9773], the IC50 stood at 2000 nM.

Turning to `CCCCC/C=C\C[C@@H](O)/C=C/C=C/C=C\[C@@H](O)CCCC(=O)O` [LTB4, Leukotriene B4], where the note is “at concentrations up to 10^−6 M, 0.4 nM [^3H]-labeled LTD4”, the “inhibition of [^3H]LTD4 binding to CysLT2” value is recorded as “did not inhibit”.
